Reference: US6211372A, “Pharmaceutical compositions and methods for use” (priority 1999, dated 2001)

The compounds below were run against dopamine release (assay: Dopamine release (receptor activation/inhibition)). Settings: activation of dopamine release.
Type: biochemical
Experimental: Dopamine release was measured using the techniques described in U.S. Pat. No. 5,597,919 to Dull et al. Release is expressed as a percentage of release obtained with a concentration of (S)-(-)-nicotine resulting in maximal effects. Reported EC50 values are expressed in nM, and Emax values represent the amount released relative to (S)-(-)-nicotine or tetramethylammonium ion (TMA), on a percentage basis.
Reported IC50 values are expressed in nM and represent the concentration resulting in 50% inhibition of agonist induced receptor activation. Emax values represent the amount released relative to (S)-(-)-nicotine on a percentage basis.

Structure (SMILES) | EC50 [µM]
CCOc1cncc(C2C3CC4CC(C3)CN2C4)c1 (stereo not drawn) [Sample No. 4, 1-aza-2-[5-ethoxy-(3-pyridyl)]-tricyclo-[3.3.1.1^3,7]decane] | > 100
Brc1cncc(C2C3CC4CC(C3)CN2C4)c1 (stereo not drawn) [Sample No. 2, 1-aza-2-[5-bromo(3-pyridyl)]tricyclo[3.3.1.1^3,7]decane] | > 100
Cl.Cl.Cl.Nc1cncc(C2C3CC4CC(C3)CN2C4)c1 (stereo not drawn) [Sample No. 3, 1-aza-2-[5-amino-(3-pyridyl)]tricyclo[3.3.1.1^3,7]decane trihydrochloride] | > 100
CC(C)Oc1cncc(C2C3CC4CC(C3)CN2C4)c1 (stereo not drawn) [Sample No. 5, 1-aza-2-[5-isopropoxy-(3-pyridyl)]tricyclo[3.3.1.1^3,7]decane] | > 100

Same assay, conditions: amount released relative to (S)-(-)-nicotine or tetramethylammonium ion (TMA)

Structure (SMILES) | Emax (dopamine release) [%]
c1cncc(C2C3CC4CC(C3)CN2C4)c1 (stereo not drawn) [Sample No. 1, 1-aza-2-(3-pyridyl)-tricyclo[3.3.1.1^3,7]decane] | 0
CCOc1cncc(C2C3CC4CC(C3)CN2C4)c1 (stereo not drawn) [Sample No. 4, 1-aza-2-[5-ethoxy-(3-pyridyl)]-tricyclo-[3.3.1.1^3,7]decane] | 0
Brc1cncc(C2C3CC4CC(C3)CN2C4)c1 (stereo not drawn) [Sample No. 2, 1-aza-2-[5-bromo(3-pyridyl)]tricyclo[3.3.1.1^3,7]decane] | 0
Cl.Cl.Cl.Nc1cncc(C2C3CC4CC(C3)CN2C4)c1 (stereo not drawn) [Sample No. 3, 1-aza-2-[5-amino-(3-pyridyl)]tricyclo[3.3.1.1^3,7]decane trihydrochloride] | 0
CC(C)Oc1cncc(C2C3CC4CC(C3)CN2C4)c1 (stereo not drawn) [Sample No. 5, 1-aza-2-[5-isopropoxy-(3-pyridyl)]tricyclo[3.3.1.1^3,7]decane] | 0
